Assay results published in patent publication US8846933B2, “N-link hydroxamic acid derivatives useful as antibacterial agents” (Pfizer Inc., priority 2009, dated 2014).
Where a name gives a salt, the structure may show the parent alone.

How the values were obtained:
Assay type in all cases: cell-based
Conditions in all cases: unit assumed
[1] = system: Escherichia coli EC-1: VOGEL, mouse virulent; experiment: MIC determination (CLSI), strain EC-1
In short: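 The mouse-virulent VOGEL isolate of E. coli, EC-1, served as test organism. Minimum inhibitory concentration was measured by CLSI dilution methodology (M7-A7; M100-S18 standards).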

[2] = system: Pseudomonas aeruginosa UI-18: Wild-type (PA-7); experiment: MIC determination (CLSI), strain PA-7
In short: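 Strain tested was P. aeruginosa UI-18, a wild-type isolate labelled PA-7. Minimum inhibitory concentrations followed CLSI dilution methodology for aerobically growing bacteria (M7-A7, M100-S18).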

[3] = system: Acinetobacter baumanii/haemolyticus: Multidrug-resistant clinical isolate (AB-3167); experiment: MIC determination (CLSI), strain AB-3167
Procedure: The in vitro antibacterial activity of compounds described in the Examples was evaluated by minimum inhibitory concentration (MIC) testing according to Clinical and Laboratory Standards Institute (CLSI, formerly NCCLS) guidelines. See: Clinical and Laboratory Standards Institute. Methods for Dilution Antimicrobial Susceptibility Tests for Bacteria that Grow Aerobically; Approved Standard-Seventh Edition. CLSI document M7-A7 [ISBN 1-56238-587-9]. Clinical and Laboratory Standards Institute, 940 West Valley Road, Suite 1400, Wayne, Pa. 19087-1898 USA, 2006; also Clinical and Laboratory Standards Institute. Performance Standards for Antimicrobial Susceptibility Testing; Eighteenth Informational Supplement. CLSI document M100-S18 [ISBN1-56238-653-0].Clinical and Laboratory Standards Institute.
The following bacterial strains were used in these MIC determinations:
2) Acinetobacter baumanii/haemolyticus: Multidrug-resistant clinical isolate labeled as AB-3167 in Tables 4 and 5;

[4] = Escherichia coli EC-1, VOGEL, mouse virulent
[5] = Pseudomonas aeruginosa UI-18, wild-type

SMILES	EC-1 (MIC) [1, 4]	PA-7 (MIC) [2, 5]	AB-3167 (MIC) [3]	EC-1 (MIC) ([1]; strain EC-1)	PA-7 (MIC) ([2]; strain PA-7)
CC(CCn1ccc(-c2ccc(OCCCN3CCC(F)(F)CC3)cc2)cc1=O)(C(=O)NO)S(C)(=O)=O (racemic) [Example 4, (+/−)-4-[4-{4-[3-(4,4-Difluoropiperidin-1-yl)propoxy]phenyl}-2-oxopyridin-1(2H)-yl]-N-hydroxy-2-methyl-2-(methylsulfonyl)butanamide hydrochloride]	1 µg/mL	4 µg/mL	> 64 µg/mL	–	–
CC(CCn1ccc(-c2cc3ccccc3o2)cc1=O)(C(=O)NO)S(C)(=O)=O (racemic) [Example 33, (+/−)-4-[4-(1-benzofuran-2-yl)-2-oxopyridin-1(2H)-yl]-N-hydroxy-2-methyl-2-(methylsulfonyl)butanamide]	1 µg/mL	2 µg/mL	> 64 µg/mL	–	–
COc1ccc2cc(-c3ccn(CCC(C)(C(=O)NO)S(C)(=O)=O)c(=O)c3)ccc2c1 (racemic) [Example 34, (+/−)-N-hydroxy-4-[4-(6-methoxy-2-naphthyl)-2-oxopyridin-1(2H)-yl]-2-methyl-2-(methylsulfonyl)butanamide]	< 0.06 µg/mL	1 µg/mL	8 µg/mL	–	–
CC(CCn1ccc(-c2ccc(-c3ccncc3)cc2)cc1=O)(C(=O)NO)S(C)(=O)=O (racemic) [Example 35, N-Hydroxy-2-methyl-2-(methylsulfonyl)-4-[2-oxo-4-(4-pyridin-4-ylphenyl)pyridin-1(2H)-yl]butanamide]	0.5 µg/mL	2 µg/mL	> 64 µg/mL	–	–
C[C@@](CCn1ccc(-c2ccc(-n3cccn3)cc2)cc1=O)(C(=O)NO)S(C)(=O)=O [Example 1, (2R)-N-hydroxy-2-methyl-2-(methylsulfonyl)-4-{2-oxo-4-[4-(1H-pyrazol-1-yl)phenyl]pyridin-1(2H)-yl}butanamide]	0.5 µg/mL	2 µg/mL	> 64 µg/mL	–	–
C[C@@](CCn1ccc(-c2ccc(Oc3nc4ccccc4s3)cc2)cc1=O)(C(=O)NO)S(C)(=O)=O [Example 445]	–	–	–	0.25 µg/mL	4 µg/mL
C[C@@](CCn1ccc(-c2ccc(Oc3noc4ccccc34)cc2)cc1=O)(C(=O)NO)S(C)(=O)=O [Example 450, (2R)-4-{4-[4-(1,2-benzisoxazol-3-yloxy)phenyl]-2-oxopyridin-1(2H)-yl}-N-hydroxy-2-methyl-2-(methylsulfonyl)butanamide]	–	–	–	0.06 µg/mL	2 µg/mL
C[C@@](CCn1ccc(-c2cc(F)cc(Cl)c2Cl)cc1=O)(C(=O)NO)S(C)(=O)=O [Example 451, (2R)-4-[4-(2,3-dichloro-5-fluorophenyl)-2-oxopyridin-1(2H)-yl]-N-hydroxy-2-methyl-2-(methylsulfonyl)butanamide]	–	–	–	4 µg/mL	4 µg/mL
COc1ccc(-c2ccn(CC[C@](C)(C(=O)NO)S(C)(=O)=O)c(=O)c2)c(Cl)c1Cl [Example 452, (2R)-4-[4-(2,3-dichloro-4-methoxyphenyl)-2-oxopyridin-1(2H)-yl]-N-hydroxy-2-methyl-2-(methylsulfonyl)butanamide]	–	–	–	4 µg/mL	2 µg/mL
C[C@@](CCn1ccc(-c2ccc(-c3cccnn3)cc2)cc1=O)(C(=O)NO)S(C)(=O)=O [Example 453, (2R)-N-hydroxy-2-methyl-2-(methylsulfonyl)-4-[2-oxo-4-(4-pyridazin-3-ylphenyl)pyridin-1(2H)-yl]butanamide]	–	–	–	4 µg/mL	8 µg/mL
C[C@@](CCn1ccc(-c2ccc(-c3cnoc3)cc2)cc1=O)(C(=O)NO)S(C)(=O)=O [Example 454, (2R)-N-hydroxy-4-[4-(4-isoxazol-4-ylphenyl)-2-oxopyridin-1(2H)-yl]-2-methyl-2-(methylsulfonyl)butanamide]	–	–	–	2 µg/mL	4 µg/mL
Cc1cnn(-c2ccc(-c3ccn(CCC(C)(C(=O)NO)S(C)(=O)=O)c(=O)c3)cc2)n1 (stereo not drawn) [Example 455]	–	–	–	0.06 µg/mL	1 µg/mL
Cc1ccc(-c2ccc(-c3ccn(CC[C@](C)(C(=O)NO)S(C)(=O)=O)c(=O)c3)cc2)cn1 [Example 456, (2R)-N-hydroxy-2-methyl-4-{4-[4-(6-methylpyridin-3-yl)phenyl]-2-oxopyridin-1(2H)-yl}-2-(methylsulfonyl)butanamide]	–	–	–	0.25 µg/mL	1 µg/mL
Cc1cnc(-c2ccc(-c3ccn(CC[C@](C)(C(=O)NO)S(C)(=O)=O)c(=O)c3)cc2)cn1 [Example 457, (2R)-N-hydroxy-2-methyl-4-{4-[4-(5-methylpyrazin-2-yl)phenyl]-2-oxopyridin-1(2H)-yl}-2-(methylsulfonyl)butanamide]	–	–	–	0.5 µg/mL	2 µg/mL
C[C@@](CCn1ccc(-c2ccc(-c3ncc(Cl)cn3)cc2)cc1=O)(C(=O)NO)S(C)(=O)=O [Example 458, (2R)-4-{4-[4-(5-chloropyrimidin-2-yl)phenyl]-2-oxopyridin-1(2H)-yl}-N-hydroxy-2-methyl-2-(methylsulfonyl)butanamide]	–	–	–	0.06 µg/mL	0.5 µg/mL
COc1c(F)cc(-c2ccn(CC[C@](C)(C(=O)NO)S(C)(=O)=O)c(=O)c2)cc1F [Example 459]	–	–	–	2 µg/mL	2 µg/mL
Cc1cnc(-c2ccc(-c3ccn(CC[C@](C)(C(=O)NO)S(C)(=O)=O)c(=O)c3)cc2)nc1 [Example 461]	–	–	–	0.125 µg/mL	1 µg/mL
CCCCc1ccc(-c2ccn(CC[C@](C)(C(=O)NO)S(C)(=O)=O)c(=O)c2)cc1 [Example 464, (2R)-4-[4-(4-butylphenyl)-2-oxopyridin-1(2H)-yl]-N-hydroxy-2-methyl-2-(methylsulfonyl)butanamide]	–	–	–	0.03 µg/mL	1 µg/mL
CCCc1ccc(-c2ccn(CC[C@](C)(C(=O)NO)S(C)(=O)=O)c(=O)c2)cc1 [Example 465, (2R)-N-hydroxy-2-methyl-2-(methylsulfonyl)-4-[2-oxo-4-(4-propylphenyl)pyridin-1(2H)-yl]butanamide]	–	–	–	0.125 µg/mL	0.5 µg/mL

SMILES	EC-1 (MIC) [1, 4]	PA-7 (MIC) [2, 5]	AB-3167 (MIC) [3]	EC-1 (MIC) ([1]; strain EC-1)	PA-7 (MIC) ([2]; strain PA-7)
CC(C)c1cccc(-c2ccn(CC[C@](C)(C(=O)NO)S(C)(=O)=O)c(=O)c2)c1 [Example 466]	–	–	–	2 µg/mL	4 µg/mL
Cc1cc(-c2ccn(CC[C@](C)(C(=O)NO)S(C)(=O)=O)c(=O)c2)ccc1C#N [Example 467]	–	–	–	4 µg/mL	2 µg/mL
COc1cccc(-c2ccn(CC[C@](C)(C(=O)NO)S(C)(=O)=O)c(=O)c2)c1C [Example 468]	–	–	–	2 µg/mL	2 µg/mL
COCCc1cccc(-c2ccn(CC[C@](C)(C(=O)NO)S(C)(=O)=O)c(=O)c2)c1 [Example 470]	–	–	–	16 µg/mL	32 µg/mL
Cc1cc(C#N)ccc1-c1ccn(CC[C@](C)(C(=O)NO)S(C)(=O)=O)c(=O)c1 [Example 472]	–	–	–	32 µg/mL	8 µg/mL
C[C@@](CCn1ccc(-c2ccc3cc(N)ncc3c2)cc1=O)(C(=O)NO)S(C)(=O)=O [Example 473]	–	–	–	16 µg/mL	16 µg/mL
C[C@@](CCn1ccc(-c2cnc(-c3ccccc3)o2)cc1=O)(C(=O)NO)S(C)(=O)=O [Example 474]	–	–	–	64 µg/mL	64 µg/mL
CC(C#N)Sc1cccc(-c2ccn(CC[C@](C)(C(=O)NO)S(C)(=O)=O)c(=O)c2)c1 (stereo partly drawn) [Example 475]	–	–	–	8 µg/mL	8 µg/mL
Cc1ccc(-c2ccn(CC[C@](C)(C(=O)NO)S(C)(=O)=O)c(=O)c2)cc1C#N [Example 476]	–	–	–	16 µg/mL	8 µg/mL
COc1cc(-c2ccn(CC[C@](C)(C(=O)NO)S(C)(=O)=O)c(=O)c2)c(F)cc1C#N [Example 477]	–	–	–	64 µg/mL	32 µg/mL
COC(=O)CCc1ccc(-c2ccn(CC[C@](C)(C(=O)NO)S(C)(=O)=O)c(=O)c2)cc1 [Example 478]	–	–	–	2 µg/mL	1 µg/mL
CCOc1ccc(-c2ccn(CC[C@](C)(C(=O)NO)S(C)(=O)=O)c(=O)c2)cc1C#N [Example 479]	–	–	–	64 µg/mL	16 µg/mL
C[C@@](CCn1ccc(-c2cccc(OC(F)F)c2)cc1=O)(C(=O)NO)S(C)(=O)=O [Example 480]	–	–	–	8 µg/mL	4 µg/mL
C[C@@](CCn1ccc(-c2ccc3c(c2)C(=O)OCC3)cc1=O)(C(=O)NO)S(C)(=O)=O [Example 481]	–	–	–	> 64 µg/mL	64 µg/mL
COc1ccnc2ccc(-c3ccn(CC[C@](C)(C(=O)NO)S(C)(=O)=O)c(=O)c3)cc12 [Example 482]	–	–	–	> 64 µg/mL	> 64 µg/mL
Cn1c(=O)sc2cc(-c3ccn(CC[C@](C)(C(=O)NO)S(C)(=O)=O)c(=O)c3)ccc21 [Example 483]	–	–	–	8 µg/mL	8 µg/mL
C[C@@](CCn1ccc(-c2ccc3cnc(N)cc3c2)cc1=O)(C(=O)NO)S(C)(=O)=O [Example 485]	–	–	–	64 µg/mL	32 µg/mL
C[C@@](CCn1ccc(-c2ccc3c(c2)C(=O)OC3)cc1=O)(C(=O)NO)S(C)(=O)=O [Example 486]	–	–	–	> 64 µg/mL	> 64 µg/mL
CC(CCn1ccc(OCCCC2CCCC2)cc1=O)(C(=O)NO)S(C)(=O)=O (stereo not drawn) [Example 488, 4-[4-(3-cyclopentylpropoxy)-2-oxopyridin-1(2H)-yl]-N-hydroxy-2-methyl-2-(methylsulfonyl)butanamide]	–	–	–	8 µg/mL	64 µg/mL
